Patent US20250122160A1, “PROTEIN TYROSINE PHOSPHATASE INHIBITORS AND METHODS OF USE THEREOF” (Calico Life Sciences LLC, priority 0001, published 2025)
pIC50: −log10 of the molar value.

Key:
[1] = target: T1, His tagged PTPN2 (TC45) protein (Homo sapiens, UniProt P17706); experiment: Mobility shift assay (MSA) to determine potency of PTPN2 inhibitors; type: biochemical; settings: 0.5 nM enzyme, 2 μM substrate
T1 construct: made in house
T1 sequence (P17706 with tags, fused parts or gaps isoform P17706-2): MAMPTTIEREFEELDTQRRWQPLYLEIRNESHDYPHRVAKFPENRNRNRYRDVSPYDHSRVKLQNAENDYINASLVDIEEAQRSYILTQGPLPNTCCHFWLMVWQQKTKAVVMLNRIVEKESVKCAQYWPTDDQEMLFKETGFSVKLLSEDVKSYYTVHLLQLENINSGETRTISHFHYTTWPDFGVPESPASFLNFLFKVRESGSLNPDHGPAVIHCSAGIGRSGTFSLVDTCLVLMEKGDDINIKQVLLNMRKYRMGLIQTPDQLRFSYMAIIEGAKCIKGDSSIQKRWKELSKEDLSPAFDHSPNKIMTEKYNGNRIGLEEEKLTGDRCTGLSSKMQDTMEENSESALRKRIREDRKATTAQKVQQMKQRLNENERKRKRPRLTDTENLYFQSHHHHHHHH
Method: Compound activity was determined using in house His tagged PTPN2 (TC45) protein (SEQ ID NO: 1) in an in vitro enzymatic reaction. The enzymatic assay used to determine activity was a mobility shift assay using a LabChip EZ Reader by Caliper Life Sciences. The enzymatic reaction was carried out in assay buffer (50 mM HEPES pH 7.5, 1 mM EGTA, 10 mM EDTA, 0.01% Tween® 20, and 2 mM DTT). The compounds were dispensed on a white 384 well ProxiPlate™ (PerkinElmer Catalog #6008289) plate using the Labcyte Echo at varying concentrations (12 point, 1:3 dilution). The enzyme (at 0.5 nM) was incubated with compound for 10 minutes at room temperature. Then the substrate (phosphorylated insulin receptor probe sequence: ((OG488)-(NH—CH2—CH2—O—CH2—CH2—O—CH2—CO)-T-R-D-I-(PY)-E-T-D-Y—Y—R—K—K—NH2) (SEQ ID NO: 2) was added at 2 μM to the plates and incubated for another 10 minutes at room temperature. Finally, a quench solution (water and 4-bromo-3-(2-oxo-2-propoxyethoxy)-5-(3-{[1-(phenylmethanesulfonyl)piperidin-4-yl]amino}phenyl)thiophene-2-carboxylic acid) was added to the plates, which were then run on the EZ Reader (excitation 488 nm, emission 530 nm) to measure % conversion (the amount of phosphorylated substrate which was de-phosphorylated by PTPN2). […] The % inhibition was then used to calculate the IC50 values.

[2] = target: T2, His tagged full-length PTPN1 protein (Homo sapiens, UniProt P18031); experiment: Mobility shift assay (MSA) to determine potency of PTPN1 inhibitors; type: biochemical; settings: 0.5 nM enzyme, 2 μM substrate
T2 construct: made in house
T2 sequence (P18031 with tags, fused parts or gaps): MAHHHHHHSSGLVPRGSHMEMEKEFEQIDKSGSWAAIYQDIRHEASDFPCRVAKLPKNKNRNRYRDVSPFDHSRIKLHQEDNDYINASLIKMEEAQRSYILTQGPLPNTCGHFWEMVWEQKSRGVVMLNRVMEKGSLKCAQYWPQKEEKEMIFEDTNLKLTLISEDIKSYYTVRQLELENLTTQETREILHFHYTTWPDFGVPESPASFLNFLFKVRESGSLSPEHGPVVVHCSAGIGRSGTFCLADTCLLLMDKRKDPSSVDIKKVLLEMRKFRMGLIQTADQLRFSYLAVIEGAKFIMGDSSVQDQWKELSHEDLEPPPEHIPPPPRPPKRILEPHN
Method: Compound activity was determined using in house His tagged full-length PTPN1 protein (SEQ ID NO: 3) in an in vitro enzymatic reaction. The enzymatic assay used to determine activity is a mobility shift assay using a LabChip EZ Reader by Caliper Life Sciences. The enzymatic reaction was carried out in assay buffer (50 mM HEPES pH 7.5, 1 mM EGTA, 10 mM EDTA. 0.01% Tween® 20, and 2 mM DTT). The compounds were dispensed on a white 384 well ProxiPlate™ (PerkinElmer Cat #6008289) plate using a Labcyte Echo® liquid handler at varying concentrations (12 point, 1:3 dilution). The enzyme (at 0.5 nM) was incubated with compound for 10 minutes at room temperature. Then the substrate (phosphorylated insulin receptor probe sequence: ((OG488)-(NH—CH2—CH2—O—CH2—CH2—O—CH2—CO)-T-R-D-I-(PY)-E-T-D-Y—Y—R—K—K—NH2) (SEQ ID NO: 2) was added at 2 μM to the plates and incubated for another 10 minutes at room temperature. Finally, a quench solution (water and 4-bromo-3-(2-oxo-2-propoxyethoxy)-5-(3-{[1-(phenylmethanesulfonyl)piperidin-4-yl]amino}phenyl)thiophene-2-carboxylic acid) was added to the plates, which were then run on the EZ Reader (excitation 488 nm, emission 530 nm) to measure % conversion (the amount of phosphorylated substrate which was de-phosphorylated by PTPN1). […] The % inhibition was then used to calculate the IC50 values.

SMILES | pIC50 [1] | pIC50 [2]
O=C1CN(c2c(O)cc3c(c2F)C[C@H](NCCC2CC(F)(F)C2)CC3)S(=O)(=O)N1 [Compound 202] | > 9.00 | 8.00 to 9.00
CCC(CC)CCN[C@@H]1CCc2cc(O)c(N3CC(=O)NS3(=O)=O)c(F)c2C1 [Compound 204] | > 9.00 | 8.00 to 9.00
CC(C)CCNC(=O)N1CCc2cc(O)c(N3CC(=O)NS3(=O)=O)c(F)c2C1 [Compound 205] | 8.00 to 9.00 | 7.00 to 8.00
CC(C)CNC(=O)N1CCc2cc(O)c(N3CC(=O)NS3(=O)=O)c(F)c2C1 [Compound 206] | 7.00 to 8.00 | 7.00 to 8.00
O=C1CN(c2c(O)cc3c(c2F)CN(CCCc2cccnc2)CC3)S(=O)(=O)N1 [Compound 207] | 7.00 to 8.00 | 7.00 to 8.00
Cc1noc(C)c1CN1CCc2cc(O)c(N3CC(=O)NS3(=O)=O)c(F)c2C1 [Compound 208] | 7.00 to 8.00 | 7.00 to 8.00
Cc1nn(C)c(C)c1CCN1CCc2cc(O)c(N3CC(=O)NS3(=O)=O)c(F)c2C1 [Compound 209] | 8.00 to 9.00 | 8.00 to 9.00
O=C1CN(c2c(O)cc3c(c2F)CN(CCc2cncnc2)CC3)S(=O)(=O)N1 [Compound 210] | < 7.00 | 7.00 to 8.00
Cc1noc(C)c1CCN1CCc2cc(O)c(N3CC(=O)NS3(=O)=O)c(F)c2C1 [Compound 211] | 8.00 to 9.00 | 8.00 to 9.00
Cc1n[nH]c(C)c1CN1CCc2cc(O)c(N3CC(=O)NS3(=O)=O)c(F)c2C1 [Compound 212] | < 7.00 | < 7.00
Cc1nn(C)c(C)c1CN1CCc2cc(O)c(N3CC(=O)NS3(=O)=O)c(F)c2C1 [Compound 213] | < 7.00 | < 7.00
O=C1CN(c2c(O)cc3c(c2F)CN(CCC2CCOCC2)CC3)S(=O)(=O)N1 [Compound 214] | 7.00 to 8.00 | 7.00 to 8.00
COCCN1CCc2cc(O)c(N3CC(=O)NS3(=O)=O)c(F)c2C1 [Compound 216] | < 7.00 | < 7.00
COCCCN1CCc2cc(O)c(N3CC(=O)NS3(=O)=O)c(F)c2C1 [Compound 217] | < 7.00 | < 7.00
NCCCN1CCc2cc(O)c(N3CC(=O)NS3(=O)=O)c(F)c2C1 [Compound 218] | < 7.00 | 7.00 to 8.00
O=C1CN(c2c(O)cc3c(c2F)CN(CCCC2CCNCC2)CC3)S(=O)(=O)N1 [Compound 219] | 7.00 to 8.00 | 7.00 to 8.00
CC(C)CCN1CCc2cc(O)c(N3CC(=O)NS3(=O)=O)c(F)c2C1 [Compound 220] | 7.00 to 8.00 | 7.00 to 8.00
CC(C)(C)OC(=O)N1CCc2cc(O)c(N3CC(=O)NS3(=O)=O)c(F)c2C1 [Compound 221] | 7.00 to 8.00 | 8.00 to 9.00
Cc1nn(C)c(C)c1CN1CC(N2CCc3cc(O)c(N4CC(=O)NS4(=O)=O)c(F)c3C2)C1 [Compound 224] | < 7.00 | 7.00 to 8.00
Cc1nn(CC(F)F)c(C)c1CCN1Cc2c(cc(O)c(N3CC(=O)NS3(=O)=O)c2F)C(F)(F)C1 [Compound 226] | 7.00 to 8.00 | 7.00 to 8.00
Cc1nn(CCCC(C)(C)C#N)c(C)c1CN1CCc2cc(O)c(N3CC(=O)NS3(=O)=O)c(F)c2C1 [Compound 227] | < 7.00 | < 7.00
O=C1CN(c2c(O)cc3c(c2F)CN(CC2CCNCC2)CC3)S(=O)(=O)N1 [Compound 228] | < 7.00 | 7.00 to 8.00
O=C1CN(c2c(O)cc3c(c2F)CN(CCCN2CCOCC2)CC3)S(=O)(=O)N1 [Compound 229] | 7.00 to 8.00 | 7.00 to 8.00

SMILES | pIC50 [1] | pIC50 [2]
O=C1CN(c2c(O)cc3c(c2F)CN(CCC2CCNCC2)CC3)S(=O)(=O)N1 [Compound 230] | < 7.00 | 7.00 to 8.00
O=C1CN(c2c(O)cc3c(c2F)CN(CC[C@H]2C[C@@H](OC(F)(F)F)C2)CC3)S(=O)(=O)N1 [Compound 231] | 7.00 to 8.00 | 8.00 to 9.00
CN1CCN(CCCN2CCc3cc(O)c(N4CC(=O)NS4(=O)=O)c(F)c3C2)CC1 [Compound 232] | < 7.00 | 7.00 to 8.00
CC(C)OCCN1CCc2cc(O)c(N3CC(=O)NS3(=O)=O)c(F)c2C1 [Compound 233] | < 7.00 | 7.00 to 8.00
Cc1nn(C)c(C)c1CN1CCC(N2CCc3cc(O)c(N4CC(=O)NS4(=O)=O)c(F)c3C2)CC1 [Compound 236] | < 7.00 | 7.00 to 8.00
Cc1nn(C)c(C)c1CN1CC2(CC(N3CCc4cc(O)c(N5CC(=O)NS5(=O)=O)c(F)c4C3)C2)C1 [Compound 237] | < 7.00 | < 7.00
Cc1nn(C(F)F)c(C)c1CCN1CCc2cc(O)c(N3CC(=O)NS3(=O)=O)c(F)c2C1 [Compound 238] | 8.00 to 9.00 | 8.00 to 9.00
O=C1CN(c2c(O)cc3c(c2F)CN(CCC2(C(F)(F)F)CC2)CC3)S(=O)(=O)N1 [Compound 243] | 8.00 to 9.00 | 8.00 to 9.00
O=C1CN(c2c(O)cc3c(c2F)CN(CCCO)CC3)S(=O)(=O)N1 [Compound 244] | 7.00 to 8.00 | 7.00 to 8.00
C[C@H](N)CN1CCc2cc(O)c(N3CC(=O)NS3(=O)=O)c(F)c2C1 [Compound 245] | 7.00 to 8.00 | 7.00 to 8.00
C[C@@H](N)CN1CCc2cc(O)c(N3CC(=O)NS3(=O)=O)c(F)c2C1 [Compound 246] | 7.00 to 8.00 | 7.00 to 8.00
O=C1CN(c2c(O)cc3c(c2F)CN(CCN2CCNCC2)CC3)S(=O)(=O)N1 [Compound 247] | 7.00 to 8.00 | 7.00 to 8.00
COC(CN1CCc2cc(O)c(N3CC(=O)NS3(=O)=O)c(F)c2C1)C1CCCC1 (centres unmarked) [Compound 249] | 7.00 to 8.00 | 7.00 to 8.00
N[C@H](CCC1CCCCC1)C(=O)N1CCc2cc(O)c(N3CC(=O)NS3(=O)=O)c(F)c2C1 [Compound 250] | 7.00 to 8.00 | 7.00 to 8.00
CC(C)OCCCN1CCc2cc(O)c(N3CC(=O)NS3(=O)=O)c(F)c2C1 [Compound 251] | 7.00 to 8.00 | 7.00 to 8.00
Cn1cc(CCN2CCc3cc(O)c(N4CC(=O)NS4(=O)=O)c(F)c3C2)cn1 [Compound 252] | < 7.00 | < 7.00
Cc1nn(CC(F)F)c(C)c1CCN1CCc2cc(O)c(N3CC(=O)NS3(=O)=O)c(F)c2C1 [Compound 253] | 8.00 to 9.00 | 8.00 to 9.00
Cc1nn(C)cc1CCN1CCc2cc(O)c(N3CC(=O)NS3(=O)=O)c(F)c2C1 [Compound 256] | 8.00 to 9.00 | 8.00 to 9.00
Cc1c(CCN2CCc3cc(O)c(N4CC(=O)NS4(=O)=O)c(F)c3C2)cnn1C [Compound 257] | 8.00 to 9.00 | 8.00 to 9.00
O=C1CN(c2c(O)cc3c(c2F)CN(C(=O)NCC2CC2)CC3)S(=O)(=O)N1 [Compound 258] | 8.00 to 9.00 | 8.00 to 9.00
O=C1CN(c2c(O)cc3c(c2F)CN(C(=O)NCC2CCOCC2)CC3)S(=O)(=O)N1 [Compound 261] | 7.00 to 8.00 | 7.00 to 8.00
O=C1CN(c2c(O)cc3c(c2F)CN(C(=O)NCC2CC(F)(F)C2)CC3)S(=O)(=O)N1 [Compound 262] | 7.00 to 8.00 | 8.00 to 9.00
O=C1CN(c2c(O)cc3c(c2F)CN(C(=O)NCCC2CC2)CC3)S(=O)(=O)N1 [Compound 264] | 7.00 to 8.00 | 7.00 to 8.00
